Patent EP3263567A1, “CARBOXAMIDE-SUBSTITUTED PYRAZOLES AND TRI(HETERO)ARYL-PYRAZOLES FOR USE IN METHODS OF TREATING AND / OR PREVENTING CARDIOVASCULAR DISEASES AND / OR COMORBIDITIES THEREOF” (AiCuris Anti-infective Cures GmbH, priority 2016, dated 2018)

Molecular target: T1, human HCN4 currents (Homo sapiens, UniProt Q9Y3Q4)
T1 construct: CHO cells transiently expressing the HCN4 channel; expressed in transfected cells; host or cells: CHO (ATCC CCL-61), transiently transfected
T1 sequence (Q9Y3Q4 1-1203): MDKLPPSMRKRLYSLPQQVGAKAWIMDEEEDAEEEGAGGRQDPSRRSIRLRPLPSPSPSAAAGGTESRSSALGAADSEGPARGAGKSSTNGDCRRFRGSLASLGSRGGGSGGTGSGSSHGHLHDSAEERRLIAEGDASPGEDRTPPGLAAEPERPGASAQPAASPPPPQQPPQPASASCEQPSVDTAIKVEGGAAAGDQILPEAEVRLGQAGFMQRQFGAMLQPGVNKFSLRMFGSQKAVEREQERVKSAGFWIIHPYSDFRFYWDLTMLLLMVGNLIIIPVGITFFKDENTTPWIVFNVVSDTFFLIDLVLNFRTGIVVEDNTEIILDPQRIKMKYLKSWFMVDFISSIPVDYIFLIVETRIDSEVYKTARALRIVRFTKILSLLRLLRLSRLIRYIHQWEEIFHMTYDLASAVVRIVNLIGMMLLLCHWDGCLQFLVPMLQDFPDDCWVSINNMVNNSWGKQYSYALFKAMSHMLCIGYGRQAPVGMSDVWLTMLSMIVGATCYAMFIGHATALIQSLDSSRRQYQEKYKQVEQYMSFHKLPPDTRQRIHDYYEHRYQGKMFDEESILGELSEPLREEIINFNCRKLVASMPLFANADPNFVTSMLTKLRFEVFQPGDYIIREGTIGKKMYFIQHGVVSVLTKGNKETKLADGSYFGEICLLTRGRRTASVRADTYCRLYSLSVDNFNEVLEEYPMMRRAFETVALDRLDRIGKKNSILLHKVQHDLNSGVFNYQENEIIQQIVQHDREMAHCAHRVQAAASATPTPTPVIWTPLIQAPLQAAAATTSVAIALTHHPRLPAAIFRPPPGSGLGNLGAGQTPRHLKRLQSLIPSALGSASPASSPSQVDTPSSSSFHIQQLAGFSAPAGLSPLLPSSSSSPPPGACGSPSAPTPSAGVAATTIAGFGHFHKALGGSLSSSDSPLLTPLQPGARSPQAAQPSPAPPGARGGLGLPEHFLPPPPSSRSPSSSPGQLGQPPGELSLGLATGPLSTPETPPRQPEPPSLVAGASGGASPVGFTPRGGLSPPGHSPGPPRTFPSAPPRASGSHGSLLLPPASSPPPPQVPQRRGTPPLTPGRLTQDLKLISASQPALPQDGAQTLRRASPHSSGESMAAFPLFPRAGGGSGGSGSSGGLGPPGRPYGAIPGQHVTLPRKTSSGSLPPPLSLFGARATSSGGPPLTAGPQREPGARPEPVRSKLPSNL
Test: Whole-cell patch-clamp, HCN4 steady state currents in transiently transfected CHO cells
Type: cell-based
Conditions: CHO cells transiently expressing HCN4, steady state current at -120 mV, n=3; read-out: IC50 (inhibition of HCN4 currents)
From the text: The following six compounds in accordance with the invention: • Compound A: [drawing 81] i.e. 4-[5-[3-Chloro-5-(trifluoromethoxy) phenyl]-1-(pyridin-3-yl)-1H-pyrazol-3-yl]-5,6-dihydro-7H-pyrrolo[3,4-d]pyrimidin-7-one, • Compound B: [drawing 82] i.e. 4-[5-[3-Chloro-5-(trifluoromethoxy) phenyl]-1-(pyridin-3-yl)-1H-pyrazol-3-yl]-2,3-dihydro-1H-pyrrolo[3,4-c] pyridin-1-one, • Compound C: [drawing 83] i.e. 4-[5-[3-Chloro-5-(trifluoromethoxy) phenyl]-1-(pyridin-3-yl)-1H-pyrazol-3-yl]-5,6-dihydro-2-methyl-7H-pyrrolo[3, 4-d] pyrimidin-7-one, • Compound D: [drawing 84] i.e. 3-Amino-4-[5-[3-chloro-5-(trifluoromethoxy) phenyl]-1-(pyridin-3-yl)-1H-pyrazol-3-yl-carbonyl]-1,5-dihydro-2H-pyrrol-2-one, • Compound E: [drawing 85] i.e. 1-[[5-[3-Chloro-5-(trifluoromethoxy) phenyl]-1-(pyridin-3-yl)-1H-pyrazol-3-yl]carbonyl]-imidazolidin-4-one, • Compound F: [drawing 86] i.e. 4-[5-[3-Chloro-5-(trifluoromethoxy) phenyl]-1-(3-cyano-4-fluoro-phenyl)-1H-pyrazol-3-yl]-5,6-dihydro-7H-pyrrolo[3,4-d]pyrimidin-7-one, were tested on their effects on human HCN4 currents recorded from transiently transfected CHO cells, in direct comparison to the reference compounds described below: • Ivabradine: [drawing 87] i.e. ((S)-3-{3-[([3,4-Dimethoxy-bicyclo [4.2.0]octa-1,3,5-trien-7-yl]methyl)methylamino]propyl}-1,3,4,5-tetrahydro-7,8-dimethoxy-2H-3-benzazepin-2-on), • Compound X: [drawing 88] i.e. 1-[[1-(3-Chloro-4-fluorophenyl)-5-(3-chloro-5-fluorophenyl)-1 H-pyrazol-3-yl]carbonyl]-imidazolidin-4-one, • Compound Y: [drawing 89] i.e. N-(2-Amino-2-oxoethyl)-1-(3-chloro-4-fluorophenyl)-5-(3-chloro-5-fluorophenyl)-1H-pyrazole-3-carboxamide.
The pyrazole compounds X and Y as depicted above, and having structural similarities to the compounds of general formula (I) of the invention, were also tested to investigate whether the pure If current inhibitory effect of the compounds of the invention also extend to structurally closely related compounds.
Dependent on their solubility in the assay buffer, the compounds were tested first at one concentration of 10 µM (compound A, compound Y, compound X, compound B, compound E, compound F and ivabradine) or 1 µM for (compound C and D). If the current blocking of HCN4 at this concentration was higher than 50% the compounds were tested again at five concentrations of a half-logarithmic dilution series starting with either 10 µM or 1 µM as mentioned above (meaning 0.1 µM, 0.3 µM, 1 µM, 3 µM, and 10 µM or 0.01 µM, 0.03 µM 0.1 µM, 0.3 µM and 1 µM).
Test system: CHO cells transiently expressing the HCN4 channel; NCBI Reference Sequence: NP005468.1 (HCN4 channel); Source CHO: ATCC, CCL-61 LGC Standards GmbH, Wesel, Germany were used.
In 35 mm culture dishes CHO cells were seeded at a density allowing single cells to be recorded on the dish holder of the microscope and continuously perfused (at approximately 1 mL/min) with the bath solution described above. All solutions applied to cells including the pipette solution were maintained at room temperature (19 °C - 30 °C). After formation of a Gigaohm seal between the patch electrodes and individual cells (pipette resistance range: 2.0 MΩ - 7.0 MΩ; seal resistance range: > 1 GΩ) the cell membrane across the pipette tip was ruptured to assure electrical access to the cell interior (whole-cell patch-configuration). As soon as a stable seal was established, steady state currents were measured upon the hyperpolarization to -120 mV (2000 ms) from a holding potential of -40 mV. This voltage protocol (as shown in the scheme below) did run 5 times for control conditions and at least ten times for each test concentration. Pulse intervals were 20 s (0.05 Hz). If current amplitude was judged to be too low for measurement, another cell was recorded.
Once control recordings have been accomplished, cells were continuously perfused with bath solution containing the tested compounds as detailed above, 0.1 % DMSO or 100 µM ZD7288. […]

**Q.** With `O=C1NCc2c1ncnc2-c1cc(-c2cc(Cl)cc(OC(F)(F)F)c2)n(-c2cccnc2)n1` [Compound A, 4-[5-[3-Chloro-5-(trifluoromethoxy)phenyl]-1-(pyridin-3-yl)-1H-pyrazol-3-yl]-5,6-dihydro-7H-pyrrolo[3,4-d]pyrimidin-7-one] as the compound, how does the IC50 read?
**A.** Its IC50 is 0.03 to 0.58 µM.
